From patent US20020002172A1, “PHARMACEUTICAL FORMULATIONS” (priority 1998, published 2002) come the findings set out here.

Where a name gives a salt, the structure may show the parent alone.

Data set [1] in a line: solubility of sildenafil forms in water. Format: physicochemical.
Another data set in a line: solubility in saliva. Format: physicochemical.

For the compound `CCCc1nn(C)c2c(=O)[nH]c(-c3cc(S(=O)(=O)N4CCN(C)CC4)ccc3OCC)nc12` [sildenafil citrate], the “solubility of salt form” value in data set [1] (medium not stated) is recorded as “highly soluble”. Take `CCCc1nn(C)c2c(=O)[nH]c(-c3cc(S(=O)(=O)N4CCN(C)CC4)ccc3OCC)nc12` [sildenafil free base, 5-[2-ethoxy-5-(4-methylpiperazin-1-ylsulphonyl)-phenyl] -1,6-dihydro-1-methyl-3-propylpyrazolo [4,3-d]pyrimidin-7-one]: in “solubility in saliva”, the solubility in saliva result is recorded as “extremely low solubility”. For the same compound, in data set [1] (water), the solubility in water entry is listed as “extremely low solubility”.
